This note sets out measurements from PubChem BioAssay (NCI).

Among the test systems are OVCAR-4 ovarian; SF-295 CNS; MOLT-4 leukemia; KM12 colon; SN12C renal; HCT-15 colon; SR leukemia; UACC-257 melanoma; OVCAR-8 ovarian; A498 renal.
What all share (assay): NCI tumour cell line growth inhibition, 48 h

Where “and” joins values, the source holds several entries; their conditions need not be identical. Equal values may be shown once.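 Test compounds were applied to cells in 96-well plates for 48 hours at 5 doses. At the GI50, growth is halved. TGI is the concentration that stops growth completely.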 Some results are limits rather than exact numbers.

For the compound `C=C1C(=O)O[C@H]2[C@H]1CC/C(COC(=O)c1ccc(Br)cc1)=C\CC[C@@]1(C)O[C@@H]21`, the GI50 in the experiment with OVCAR-4 ovarian is 1.57 µM; in the experiment with SF-295 CNS, 1.67 µM; in the experiment on MOLT-4 leukemia, 1.17 µM; in the experiment on KM12 colon it was 1.8 µM; in the experiment with SN12C renal, 1.63 µM; in the experiment with HCT-15 colon it was 1.1 µM. In addition, the GI50 in the experiment on SR leukemia is 0.343 µM; in the experiment with UACC-257 melanoma, 1.65 µM; with OVCAR-8 ovarian it was 1.87 µM; with A498 renal it was 11 µM. Besides, the TGI is 3.68 µM in the experiment with OVCAR-4 ovarian; 3.57 µM in the experiment with SF-295 CNS; 6.06 µM in the experiment with MOLT-4 leukemia; 3.66 µM in the experiment on KM12 colon; 3.69 µM in the experiment on SN12C renal; 3.06 µM with HCT-15 colon. Moreover, the TGI in the experiment with SR leukemia was 4.75 µM; in the experiment on UACC-257 melanoma, 3.35 µM; in the experiment on OVCAR-8 ovarian, 5 µM; in the experiment on A498 renal it was 23.7 µM.
Consider `CCCCCCCC(=O)O[C@H]1[C@H]2[C@@H](CC1(C)C)C(=O)[C@]13O[C@H]1C(=O)[C@]1(CO1)[C@]23C`, for which the GI50 in the experiment with OVCAR-4 ovarian was 2.83 µM; in the experiment on SF-295 CNS, 20.2 µM; in the experiment on MOLT-4 leukemia, 1.17 µM; with KM12 colon it was 19 µM; in the experiment on UACC-257 melanoma, 5.03 µM; in the experiment on OVCAR-8 ovarian, 8.06 µM. The GI50 with A498 renal is 21.6 µM. For the same compound, the TGI was 9.2 µM and 9.85 µM with OVCAR-4 ovarian; 43.7 µM and 36.5 µM with SF-295 CNS; 10.9 µM and 2.68 µM with MOLT-4 leukemia; 40.3 µM and 21.5 µM in the experiment on KM12 colon; 12.6 µM and 9.31 µM with SN12C renal; 8.26 µM and 7.9 µM in the experiment on HCT-15 colon. Besides, the TGI with SR leukemia was greater than 38.7 µM; in the experiment with UACC-257 melanoma, 10.8 µM and 7.04 µM; in the experiment on OVCAR-8 ovarian, 24.5 µM and 8.05 µM; in the experiment with A498 renal, 36.1 µM and 22.8 µM.
As to `COc1cc(C2CC(c3cc(Cl)c(C)cc3O)=NN2c2ccc(S(N)(=O)=O)cc2)cc(OC)c1OC` (stereo not drawn), the GI50 with OVCAR-4 ovarian was 3.47 µM; in the experiment with SF-295 CNS, 1.8 µM; with MOLT-4 leukemia, 4.46 µM; with KM12 colon, 2.28 µM; in the experiment on SN12C renal it was 2.97 µM; with HCT-15 colon it was 3.28 µM. For the same compound, the GI50 was 2.47 µM in the experiment on SR leukemia, 4.13 µM in the experiment with UACC-257 melanoma, 3.92 µM with OVCAR-8 ovarian and 4.15 µM in the experiment on A498 renal. Also, the TGI in the experiment with OVCAR-4 ovarian was greater than 100 µM; in the experiment with SF-295 CNS it was 3.96 µM; in the experiment with MOLT-4 leukemia, greater than 100 µM; with KM12 colon, 5.1 µM; in the experiment with SN12C renal, 10.3 µM; in the experiment with HCT-15 colon it was 11.8 µM. The TGI in the experiment with SR leukemia was found to be 7.35 µM; with UACC-257 melanoma it was 15.2 µM; in the experiment with OVCAR-8 ovarian, 12.9 µM; with A498 renal, 15.3 µM.
`C=C(C)[C@@H]1CC[C@@H]2C(=CC[C@]3(C)C([C@H](C)CC/C=C(/C)C(=O)O)CC[C@@]23C)[C@@]1(C)CCC(=O)O` (stereo partly drawn): the TGI with OVCAR-4 ovarian is greater than 100 µM; in the experiment with SF-295 CNS it was greater than 100 µM; in the experiment with KM12 colon, 48.7 µM; in the experiment on SN12C renal, greater than 100 µM; in the experiment with HCT-15 colon, 44.4 µM; with SR leukemia it was 49.4 µM. Besides, the values for the TGI in the experiment with UACC-257 melanoma, in the experiment with OVCAR-8 ovarian and with A498 renal were 54.2 µM, greater than 100 µM and 74.4 µM, respectively.
With `NC(=O)COc1ccc(Br)cc1Br`, the TGI with SF-295 CNS, in the experiment with MOLT-4 leukemia, with KM12 colon, in the experiment on SN12C renal, in the experiment on HCT-15 colon and with SR leukemia was greater than 100 µM each time. For the same compound, the TGI in the experiment on UACC-257 melanoma, in the experiment on OVCAR-8 ovarian and with A498 renal was greater than 100 µM in each case.
As for `CCN(CC)CCn1nc2c3c(cccc3c1=O)-c1ccccc1-2`, the GI50 in the experiment on OVCAR-4 ovarian is 3.33 µM; in the experiment on SF-295 CNS it was 1.39 µM; in the experiment on MOLT-4 leukemia, 1.44 µM; in the experiment on KM12 colon, 2.84 µM; with SN12C renal, 2.07 µM; in the experiment on HCT-15 colon, 1.44 µM. Further, the GI50 with SR leukemia was 0.896 µM; in the experiment with UACC-257 melanoma, 1.96 µM; with OVCAR-8 ovarian, 2.23 µM; in the experiment on A498 renal it was 2.98 µM. In addition, the TGI is 26 µM in the experiment with OVCAR-4 ovarian; 7.45 µM with SF-295 CNS; 8.46 µM with MOLT-4 leukemia; greater than 50 µM in the experiment with KM12 colon; greater than 50 µM in the experiment on SN12C renal; 13.3 µM in the experiment on HCT-15 colon. In addition, the TGI with SR leukemia is 8.98 µM; in the experiment on UACC-257 melanoma, 10.7 µM; with OVCAR-8 ovarian, greater than 50 µM; in the experiment on A498 renal, 9.95 µM.
As for `Clc1ccc2c(NCCNc3nc(Cl)nc4ccccc34)ccnc2c1`, the GI50 was 0.323 µM in the experiment on OVCAR-4 ovarian; 1.75 µM with SF-295 CNS; 0.332 µM in the experiment on MOLT-4 leukemia; 1.61 µM in the experiment with KM12 colon; 1.48 µM in the experiment with SN12C renal; 1.14 µM in the experiment with HCT-15 colon. Also, the GI50 was 0.268 µM in the experiment with SR leukemia, 1.89 µM with UACC-257 melanoma, 1.49 µM in the experiment on OVCAR-8 ovarian and 1.87 µM in the experiment with A498 renal. Also, the TGI in the experiment on OVCAR-4 ovarian worked out at 1.22 µM; with SF-295 CNS, 3.26 µM; in the experiment with MOLT-4 leukemia, 1.25 µM; in the experiment with KM12 colon, 3.17 µM; in the experiment on SN12C renal it was 3.2 µM; in the experiment with HCT-15 colon, 2.55 µM. Besides, the TGI with SR leukemia is 0.866 µM; in the experiment on UACC-257 melanoma, 3.54 µM; with OVCAR-8 ovarian, 3.34 µM; in the experiment on A498 renal, 3.52 µM.
On to `COC(=O)C1=C(C)NC(C)=C(C(=O)OC)C1c1ccccc1[N+](=O)[O-]`, for which the GI50 was 61.9 µM in the experiment with OVCAR-4 ovarian; 57.8 µM in the experiment with SF-295 CNS; 78.2 µM in the experiment on MOLT-4 leukemia; greater than 100 µM with KM12 colon; 82.2 µM in the experiment on SN12C renal; 65.8 µM in the experiment on HCT-15 colon. Moreover, the GI50 in the experiment on SR leukemia is 34.7 µM; with OVCAR-8 ovarian, 64.8 µM; in the experiment with A498 renal, 11.3 µM. For the same compound, the TGI with OVCAR-4 ovarian, in the experiment with SF-295 CNS, in the experiment with MOLT-4 leukemia, with KM12 colon, in the experiment with SN12C renal and in the experiment with HCT-15 colon was greater than 100 µM in each case. In addition, the TGI in the experiment with SR leukemia was greater than 100 µM; with OVCAR-8 ovarian it was greater than 100 µM; in the experiment on A498 renal, 56.3 µM.
